Patent US20010051630A1, “Use of hydroxylamine derivatives, and method and preparations for increasing the tolerance of field crops against weather stresses” (priority 1997, published 2001)
Marks after values point to notes of the source that are not given here.

Key:
[1] = system: HMv09 inbred maize line; experiment: CSVT, seeds soaked in active agent, HMv09 maize; type: in vivo; conditions: seeds soaked in 10 mg/l active agent
Experimental: (§1) In this experiment the tolerance of maize, soybean and pepper seeds treated with the active agent against cold was tested. This test imposed temperature and oxygen deficiency stresses on the seeds and was carried out according to Barla-Szabó and Dolinka CSVT (Complex Stressing Vigour Test). For a single test, two hundred seeds were soaked for 48 hours at 25° C. and another 48 hours at 5° C in 150 ml distilled water containing the active agent in 10 mg/l concentration. Following the 96 hours of soaking, the seeds were further germinated between rolled wet paper for 96 hours at 25° C. There were 25 seeds in each roll, the rolls were placed vertically into containers and covered with a plastic bag in order to reduce evaporation. During the whole procedure the seeds were kept in darkness. At the end of the experiment the number of normally developing and ungerminated seeds were recorded. The length of the normal seedlings was measured and the average length of the five longest seedlings was calculated. Seedlings longer than 0.33 times the average length of the five longest seedlings were considered to be of high vigour, and low vigour seedlings were shorter than this length.

[2] = system: maize of low chilling tolerance (LT) population; experiment: CSVT, maize population of low chilling tolerance (LT); type: in vivo
Experimental: as §1, with “darkness.” for “darkness. At the end of the experiment the number of normally developing and ungerminated seeds were recorded. The length of the normal seedlings was measured and the average length of the five longest seedlings was calculated. Seedlings longer than 0.33 times the average length of the five longest seedlings were considered to be of high vigour, and low vigour seedlings were shorter than this length.”
(§2) At the end of the experiment the number of normally developing and ungerminated seeds were recorded. The length of the normal seedlings was measured and the average length of the five longest seedlings was calculated. Seedlings longer than 0.33 times the average length of the five longest seedlings were considered to be of high vigour, and low vigour seedlings were shorter than this length.
In the case of a further experiment with maize of low chilling tolerance (LT) and high chilling tolerance (HT) populations [Ref: P. Landi, E. Frascaroli, A. Lovato; EUPHYTICA 64 21-29 (1992)], the following positive effects were found (Table 3.).

[3] = system: green peppers; experiment: CSVT, green peppers; type: in vivo, pepper
Experimental: as §1, with “darkness.” for “darkness. At the end of the experiment the number of normally developing and ungerminated seeds were recorded. The length of the normal seedlings was measured and the average length of the five longest seedlings was calculated. Seedlings longer than 0.33 times the average length of the five longest seedlings were considered to be of high vigour, and low vigour seedlings were shorter than this length.”
as §2
Under the circumstances of the CSVT test, they increased the length of the sprouts and the roots along with the proportion of the high vigour seedlings. […]

[4] = system: bean cv. Seaway; experiment: Frost tolerance of beans; type: in vivo; conditions: −2° C. for 8 hours
Experimental: Seedlings of bean cv. Seaway were cultivated under normal conditions for the first two weeks, then they were treated with 10 mg/liter and 100 mg/liter concentration solutions of the examined active agents 2 and 1 days before the initiation of the frost tolerance experiments. In the experiment, the plants were kept at −2° C. for 8 hours, then grew under normal conditions for I week, and the survival ratio was determined. 4 trays were used for each experiment and 6 seeds were planted in each tray.

[5] = system: soybean cv. Bólyi 44; experiment: Field soybean cultivation, yield; type: in vivo
Experimental: The experiment was performed using soybean cv. Bólyi 44. Before sowing, the seeds were treated with Rhyzobium Japonicum nitrogen-binding bacterium, which forms a root nodule providing 50-70% of the nitrogen demand of the plant.
The examined compounds were applied by pearling the seeds; 1 ml of pearling agent containing 1 mg of active agent in a 5% aqueous PVA solution was used for 100 seeds.
The plants were sown after soil preparation in the autumn, using a crop rotation system, 3-5 cm deep in the ground, with a 45-50 cm row distance, a 5 cm plant distance and 450,000-500,000 plant/ha density. The date of sowing was Apr. 15, 1997. During the development of the plant, the usual cultivation procedures were followed and the usual pesticides were used. The harvest took place in September-October, with the water content of the grains being between 16-18%.

For `CC(C)(C)NCC(O)CONC(=O)c1cccc(C(F)(F)F)c1.Cl` (stereo not shown) [Compound 1, N-[2-hydroxy-3-(1,1-dimethylethyl-amino)propoxy]-3-trifluoromethyl-benzamide monohydrochloride], the “Ratio of high vigour plants (%)” value [1] was 49* %, the “Ratio of high vigour plants %, LT” value [2] was 94* % and the “Ratio of high vigour plants (%)” value [3] was 47* %. The “Survival (%)” value ([4]; spraying, 100 mg/l) was 40* %, the “Survival (%)” value ([4]; watering, 10 mg/l) was 25* % and the “Weight of the crop (kg/m^2)” value ([5]; seeds pearled with 1 mg active agent in 1 ml 5% PVA per 100 seeds) was 0.55 kg/m^2. The “Improvement compared to the control (%)” value ([5]; weight of the crop) was 22.2%.
